Values of other authors, collected in patent US8636711B2 (priority 2010, dated 2014).

NS(=O)(=O)c1cc(C(=O)O)c(NCc2ccco2)cc1Cl [furosemide]
tolerability (intravenous or subcutaneous routes): generally well-tolerated | pH value (parenteral): 11-12
